Measurements reported in publication PMC11884936, “MDC1 mediates Pellino recruitment to sites of DNA double-strand breaks” (Life Science Alliance, 2025).

How the values were obtained:
Type in all cases: binding, human
GST-PELI2-FHA = assay: Biotinylated peptide pull-down of purified recombinant GST-PELI2-FHA; details: biotinylated peptide on streptavidin beads, 5 h at 4°C, SDS–PAGE, protein stain
Method: For recombinant human PELI2-FHA expression in bacteria and further purification, the GST-tagged PELI2-FHA construct was transformed into E. coli BL21(DE3)pLysS Competent Cells (Promega). 100 μl of the transformation mixture were used to inoculate a 500 ml flask containing 100 ml of Luria–Bertani broth (LB) supplemented with carbenicillin (100 μg/ml) and chloramphenicol (34 μg/ml), and inoculated culture was incubated overnight at 27°C without shaking. On the next day, the overnight culture was grown at 37°C in an orbital shaking incubator until the optical density at 600 nm reached 0.6–0.8, moment when culture was removed from the incubator and rapidly cooled on ice to 25°C. Recombinant protein expression was induced by the addition of 0.4 mM isopropyl β-D-1-thiogalactopyranoside (IPTG) and incubation of the culture for a further 4 h at 25°C shaking at 220 rpm was performed. Cells were then harvested by centrifugation, and the resulting pellet was stored at −80°C until required. […] Protein concentration was measured after every purification step. […]

RNF8 = assay: Biotinylated peptide pull-down from HeLa nuclear extracts, Western blot for RNF8; details: biotinylated peptide on streptavidin beads, 4 h at 4°C, SDS–PAGE and Western blot
Method: Streptavidin-coupled Dynabeads MyOne Streptavidin T1 (Invitrogen) were washed four times with PBS pH 7.4. To conjugate the Dynabeads with biotinylated peptides (21st Century Biochemicals, Inc.), 30 μl of beads were incubated with 0.2 μmol of each peptide with end-over-end rotation for 90 min at RT. Conjugated Dynabeads were then washed once with PBS and 3 × 2 min with 0.1% BSA in PBS. HeLa nuclear extracts (Ipracell) were diluted 1:1 in 2X Dilution buffer (100 mM NaCl, 10 mM NaF, 0.2 mM EDTA, 0.4% Igepal CA-630, 20 mM HEPES-KOH pH 7.4) supplemented with complete protease inhibitor cocktail (Roche), and cleared by centrifugation at 16,000g for 15 min at 4°C. Purified GST-PELI2-FHA recombinant protein was also diluted in 2X Dilution buffer containing protease inhibitors. MDC1-[p]TQXF peptide-conjugated Dynabeads were incubated either with clarified HeLa nuclear extracts for 4 h or with purified GST-PELI2-FHA for 5 h. H2AX-[p]S139 peptide-conjugated Dynabeads were incubated with clarified HeLa nuclear extracts for 4 h. […]
(§1) Adjusted volume (intensity) of Western blot bands was calculated with Image Lab (Bio-Rad, Image Lab Software Version 6.1, Bio-Rad Laboratories, Inc.) for every biotinylated p-peptide from the MDC1-[p]TQXF peptide pull-down from HeLa nuclear extracts, as a way of analyzing the binding affinity of either RNF8 or PELI1/2 for each pTQXF cluster. […]

PELI1/2 = assay: Biotinylated peptide pull-down from HeLa nuclear extracts, Western blot for PELI1/2; details: biotinylated peptide on streptavidin beads, 4 h at 4°C, SDS–PAGE and Western blot
Method: Streptavidin-coupled Dynabeads MyOne Streptavidin T1 (Invitrogen) were washed four times with PBS pH 7.4. To conjugate the Dynabeads with biotinylated peptides (21st Century Biochemicals, Inc.), 30 μl of beads were incubated with 0.2 μmol of each peptide with end-over-end rotation for 90 min at RT. Conjugated Dynabeads were then washed once with PBS and 3 × 2 min with 0.1% BSA in PBS. HeLa nuclear extracts (Ipracell) were diluted 1:1 in 2X Dilution buffer (100 mM NaCl, 10 mM NaF, 0.2 mM EDTA, 0.4% Igepal CA-630, 20 mM HEPES-KOH pH 7.4) supplemented with complete protease inhibitor cocktail (Roche), and cleared by centrifugation at 16,000g for 15 min at 4°C. Purified GST-PELI2-FHA recombinant protein was also diluted in 2X Dilution buffer containing protease inhibitors. MDC1-[p]TQXF peptide-conjugated Dynabeads were incubated either with clarified HeLa nuclear extracts for 4 h or with purified GST-PELI2-FHA for 5 h. H2AX-[p]S139 peptide-conjugated Dynabeads were incubated with clarified HeLa nuclear extracts for 4 h. In all the cases, incubation was performed with end-over-end rotation at 4°C. Beads were washed three times with Peptide pull-down buffer (50 mM NaCl, 50 mM KCl, 5 mM NaF, 0.1 mM EDTA, 0.2% Igepal CA-630, 10% glycerol, 20 mM HEPES-KOH pH 7.4) supplemented with complete protease inhibitor cocktail (Roche). Then, they were either resuspended in Peptide pull-down buffer and brought to the Functional Genomics Center of the University of Zurich (FGCZ) for further mass spectrometry, or elution was carried out in 2X SDS sample buffer (100 mM DTT, PLD001; Geneaid) for SDS–PAGE. […]
as §1

MDC1 = assay: Biotinylated H2AX-pS139 peptide pull-down from HeLa nuclear extracts, Western blot for MDC1; details: biotinylated peptide on streptavidin beads, 4 h at 4°C
Method: Streptavidin-coupled Dynabeads MyOne Streptavidin T1 (Invitrogen) were washed four times with PBS pH 7.4. To conjugate the Dynabeads with biotinylated peptides (21st Century Biochemicals, Inc.), 30 μl of beads were incubated with 0.2 μmol of each peptide with end-over-end rotation for 90 min at RT. Conjugated Dynabeads were then washed once with PBS and 3 × 2 min with 0.1% BSA in PBS. HeLa nuclear extracts (Ipracell) were diluted 1:1 in 2X Dilution buffer (100 mM NaCl, 10 mM NaF, 0.2 mM EDTA, 0.4% Igepal CA-630, 20 mM HEPES-KOH pH 7.4) supplemented with complete protease inhibitor cocktail (Roche), and cleared by centrifugation at 16,000g for 15 min at 4°C. Purified GST-PELI2-FHA recombinant protein was also diluted in 2X Dilution buffer containing protease inhibitors. MDC1-[p]TQXF peptide-conjugated Dynabeads were incubated either with clarified HeLa nuclear extracts for 4 h or with purified GST-PELI2-FHA for 5 h. H2AX-[p]S139 peptide-conjugated Dynabeads were incubated with clarified HeLa nuclear extracts for 4 h. In all the cases, incubation was performed with end-over-end rotation at 4°C. Beads were washed three times with Peptide pull-down buffer (50 mM NaCl, 50 mM KCl, 5 mM NaF, 0.1 mM EDTA, 0.2% Igepal CA-630, 10% glycerol, 20 mM HEPES-KOH pH 7.4) supplemented with complete protease inhibitor cocktail (Roche). […]

Substance | purified GST-PELI2-FHA pulled down by the peptide (in words) (GST-PELI2-FHA) | RNF8 pulled down by the peptide (in words) (RNF8) | PELI1/2 pulled down by the peptide (in words) (PELI1/2) | MDC1 pulled down by the peptide (in words) (MDC1)
Biotin-SGS-LDEPWEVLA[p]TQPFCL-NH2 [biotinylated pT752, synthetic biotinylated peptide, human MDC1 residues 743–757, phospho-threonine at T752] | specifically pulled down | large quantities | – | –
Biotin-SGS-AVQSMEDEP[p]TQAFML-NH2 [biotinylated pT719, synthetic biotinylated MDC1 TQXF phosphopeptide for pull-downs] | specifically pulled down | – | specifically pulled down | –
Biotin-SGS-TVGPKAPSGGKKATQA[p]SQEY-OH [biotinylated H2AX-pS139, biotinylated γH2AX phosphopeptide for pull-downs] | – | – | – | efficiently pulled down
